Data taken from PubChem BioAssay (NCI).
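Dose response: 5 concentrations. Exposure: 48 h. Format: 96-well plates. Endpoint: linear interpolation; highest concentration if not reached. Definition used: TGI = concentration required for complete inhibition of growth.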

Key:
Test in all cases: growth of human tumour cells (NCI), 48 h
[1] = tested on: MDA-MB-435
[2] = tested on: NCI-H23 lung
[3] = tested on: M14 melanoma
[4] = tested on: HT29 colon
[5] = tested on: SK-OV-3 ovarian
[6] = tested on: MALME-3M melanoma
[7] = tested on: UO-31 renal
[8] = tested on: A498 renal
[9] = tested on: SK-MEL-2 melanoma
[10] = tested on: SF-539 CNS
[11] = tested on: DU-145 prostate
[12] = tested on: IGROV1 ovarian
[13] = tested on: MDA-MB-231 breast
[14] = tested on: HCC-2998 colon
[15] = tested on: ACHN renal

| Compound | TGI [1] [µM] | TGI [2] [µM] | TGI [3] [µM] | TGI [4] [µM] | TGI [5] [µM] | TGI [6] [µM] | TGI [7] [µM] | TGI [8] [µM] | TGI [9] [µM] | TGI [10] [µM] | TGI [11] [µM] | TGI [12] [µM] | TGI [13] [µM] | TGI [14] [µM] | TGI [15] [µM] |
| --- | --- | --- | --- | --- | --- | --- | --- | --- | --- | --- | --- | --- | --- | --- | --- |
| COc1cccc(N2C(=O)C3c4[nH]c5ccc(C)cc5c4C4CCC(C(C)(C)C)CC4C3C2=O)c1 (configuration not stated) | > 10 | 5.74 | > 10 | > 10 | > 10 | > 10 | > 10 | > 10 | > 10 | 7.41 | > 10 | > 10 | > 10 | > 10 | > 10 |
| O=c1onc2c3ccccc3ncn12 | > 100 | > 100 | > 100 | > 100 | > 100 | – | > 100 | > 100 | > 100 | > 100 | > 100 | > 100 | > 100 | > 100 | > 100 |
| CC(C)=C/C=C1/CS(=O)(=O)C=C1C | > 100 | > 100 | > 100 | > 100 | > 100 | > 100 | > 100 | > 100 | > 100 | > 100 | > 100 | > 100 | > 100 | > 100 | > 100 |
| CCOc1cc(NC(C)=O)ccc1C(=O)NN1C(=O)C(Cl)C1c1ccco1 (configuration not stated) | 32.3 | 39 | 36.8 | 38.8 | 38.2 | 24.6 | 11.5 | 30.8 | 37.3 | 38 | 31.1 | 28.8 | 31.1 | 29.5 | 29.1 |
| CC[C@@H](/C=C\CCC(=O)C[C@H](O)CCC=C(C)C)O[Si](C(C)C)(C(C)C)C(C)C | > 100 | > 100 | > 100 | > 100 | > 100 | – | > 100 | > 100 | > 100 | > 100 | > 100 | > 100 | > 100 | > 100 | > 100 |
| CC(C)[C@@H]1ON1C(C)c1ccccc1 (some centres not stated) | > 100 | > 100 | > 100 | > 100 | > 100 | > 100 | > 100 | > 100 | – | > 100 | > 100 | > 100 | > 100 | > 100 | > 100 |
| CC(C)C1=CC23CCC4C(C)(C(=O)O)CCCC4(C)C2CC1C1C(=O)N(c2ccc(C(=O)O)cc2)C(=O)C13 (configuration not stated) | > 100 | > 100 | > 100 | > 100 | > 100 | > 100 | > 100 | – | > 100 | > 100 | > 100 | > 100 | > 100 | > 100 | > 100 |
| CCN(c1cccc(NC(=S)Nc2ccccc2N(CC)c2cc(-c3ccccc3)no2)c1)c1cc(-c2ccccc2)no1 | > 100 | > 100 | > 100 | > 100 | > 100 | > 100 | > 100 | – | > 100 | > 100 | > 100 | > 100 | > 100 | > 100 | > 100 |
| COC(=O)C1=C(C)N2[C@H](C(=O)O)CO[C@@]2(C)[C@H](C(=O)OC)[C@H]1c1cccc([N+](=O)[O-])c1 | > 100 | > 100 | > 100 | > 100 | > 100 | > 100 | > 100 | > 100 | > 100 | > 100 | > 100 | > 100 | > 100 | > 100 | > 100 |
| C=CCOC(=O)C1C2OC3(C(C(=O)OC)=C2C(=O)OC)c2ccccc2CCC13 (configuration not stated) | > 10 | > 10 | > 10 | > 10 | > 10 | > 10 | > 10 | > 10 | > 10 | > 10 | > 10 | > 10 | > 10 | > 10 | > 10 |
| COc1ccc(N=C2C(=Nc3ccc(OC)cc3)N(c3ccccc3)C(=S)N2N=C=C2Sc3ccccc3N2C)cc1 | > 100 | > 100 | > 100 | > 100 | > 100 | > 100 | > 100 | – | > 100 | > 100 | > 100 | > 100 | > 100 | > 100 | > 100 |
| O=C(/C=C/c1csc(-c2ccccc2)n1)NCc1ccc(C(=O)NCc2ccccc2)cc1 | > 100 | > 100 | > 100 | > 100 | > 100 | > 100 | > 100 | > 100 | > 100 | > 100 | > 100 | > 100 | 53.5 | > 100 | > 100 |
| CC1=NN(C(=O)CSc2nc3ccc(I)cc3c(=O)n2Cc2ccccc2)C(=O)C1 | 75.2 | 43.1 | > 100 | > 100 | 77 | – | – | 83.7 | 41 | > 100 | > 100 | 65.4 | > 100 | > 100 | > 100 |
| Cc1ccc2nc(NC(=O)/C(Cc3nc4ccc(Cl)cc4[nH]c3=O)=N\NC(C)(C)C)sc2c1 | > 100 | > 100 | > 100 | > 100 | > 100 | – | > 100 | > 100 | > 100 | > 100 | > 100 | – | > 100 | > 100 | > 100 |
| O[C@H]1[C@H](O)[C@@H](O)[C@@]2(O)C[C@@H](O)[C@@H]1N2 | > 100 | > 100 | > 100 | > 100 | > 100 | > 100 | > 100 | > 100 | – | > 100 | > 100 | > 100 | > 100 | > 100 | > 100 |
| CC(C)CN=C(N)N=C(N)N | > 100 | > 100 | > 100 | > 100 | > 100 | > 100 | > 100 | – | > 100 | > 100 | > 100 | > 100 | > 100 | > 100 | > 100 |
| COc1ccc2c(c1)CCN1CCc3cc(OC)c(OC)cc3CC21 (configuration not stated) | > 100 | > 100 | > 100 | > 100 | > 100 | – | > 100 | > 100 | – | > 100 | > 100 | > 10 | > 100 | > 100 | > 100 |
| COc1cc([C@@H]2c3cc(O)c(OC)cc3C=C(C(N)=O)[C@H]2C(N)=O)ccc1O | > 100 | > 100 | > 100 | > 100 | – | > 100 | > 100 | > 100 | – | > 100 | > 100 | > 100 | > 100 | > 100 | > 100 |
| CCOC(=O)c1ccc(C(=O)C(C(C)=O)C(=O)OC(C)(C)C)[nH]1 (configuration not stated) | > 100 | > 100 | > 100 | > 100 | > 100 | > 100 | > 100 | > 100 | > 100 | – | > 100 | > 100 | > 100 | > 100 | > 100 |
| O=C1NC(=S)N(c2ccccc2)C1=O | > 100 | > 100 | – | > 100 | > 100 | > 100 | > 100 | > 100 | > 100 | > 100 | > 100 | > 100 | > 100 | > 100 | > 100 |
| Cc1n[nH]c(=O)n1/N=C/c1ccc([N+](=O)[O-])o1 | 18.6 | 32.4 | 26.6 | 30.1 | > 100 | 15.5 | 30.2 | 47.6 | > 53.8 | 37.1 | 22.3 | – | 74.9 | 40.7 | 28.7 |
| Cc1ccc(/C=C2\CCCC(CN3CCCCC3)C2=O)cc1 (configuration not stated) | 3.81 | 4.86 | – | 3.28 | 30.1 | 5.98 | 3.58 | 26.1 | 9.91 | 15.6 | 23.9 | 3.72 | 3.34 | 28.9 | 16.4 |
| O=C1C[C@@H](c2ccccc2)O[C@@H](c2ccccc2)C1 | > 100 | > 100 | > 100 | > 100 | > 100 | > 100 | > 100 | – | > 100 | > 100 | > 100 | > 100 | > 100 | > 100 | – |
| CC(C)(C)OC(=O)NCCC1CN(C(=O)c2ccccc2)c2ccccc21 (configuration not stated) | 84.7 | 88.8 | 33.6 | 63.7 | > 100 | 80.9 | 76.1 | > 100 | 91.2 | – | > 100 | > 100 | > 100 | > 100 | > 100 |
